# Assay results as given in patent US8445409B2, “Use of 5-benzyloxymethyl-1,2-isoxazoline derivatives as a herbicide” (Moghu Research Center Ltd., priority 2007, dated 2013).
# Assays:
# Zoysiagrass = experiment: Turfgrass safety test (sod mat pots), visual phytotoxicity; type: in vivo, Zoysia japonica; conditions: in vivo
# Excerpt: Commercially available sod mats of zoysiagrass and bentgrass, Kentucky bluegrass, and perennial ryegrass were purchased. After cutting each turf sod mat in a size of 10 cm×20 cm, it was transplanted to a rectangular plastic pot having a surface area of 300 cm^2 wherein mixed soils including blend of a bed soil (Boonong, Horticultural Nursery Soil No. 3) and sandy loam soil were filled (mixing ratio, 1:1). After transplanting, the grass was mowed (0.5˜1.0 cm in height) once a week, and kept for one month in a greenhouse maintained at 25˜30° C. (day) or 15˜25° C. (night), then the test substance of the present invention was applied at dosage of 4, 2, 1 and 0.5 kg/ha. As a reference, Dithiopyr (32% EC, manufactured by Dongbu Hannong Chemical Company, KOREA) was applied at the recommended rate of 0.48 kg/ha, or twice or quadruple amount thereof, i.e., 0.96 and 1.92 kg/ha, respectively. Spray was made by a track sprayer equipped with a Teejet 8002 nozzle. Spray volume was adjusted to 2,000 L/ha, which was a typical value for an Asian (Korea and Japan) golf course. The spray solution was prepared by dissolving the “test substance” in acetone and adding the same volume of 0.2% (v/v) Tween 20 aqueous solution. Two, four or six weeks after the spray of the test substance, phytotoxicity to the turfgrass were visually evaluated based on 0 to 10 scale (0: no phytotoxic effect, 10: completely killed). The test was conducted in a randomized block design with a three replicates and the results were summarized in the following Table 2 is an average value of the replicates.
# [1] = test system: all the tested gramineous weeds; experiment: Example 3-1, gramineous weeds as a group; type: in vivo, large crabgrass, annual bluegrass, goosegrass; conditions: PRE and POST timings, 0.25 kg/ha to 4 kg/ha
# Excerpt: Commercially available sod mats of zoysiagrass and bentgrass, Kentucky bluegrass, and perennial ryegrass were purchased. After cutting each turf sod mat in a size of 10 cm×20 cm, it was transplanted to a rectangular plastic pot having a surface area of 300 cm^2 wherein mixed soils including blend of a bed soil (Boonong, Horticultural Nursery Soil No. 3) and sandy loam soil were filled (mixing ratio, 1:1). After transplanting, the grass was mowed (0.5˜1.0 cm in height) once a week, and kept for one month in a greenhouse maintained at 25˜30° C. (day) or 15˜25° C. (night). Then three strips of 1 cm width were removed by excision with a scissor. The open space was filled with a new soil, and seeds of large crabgrass, annual bluegrass, or goosegrass were sown. The pots were kept in a greenhouse. When the said weeds were grown up to the 3 leaf stage, another set was prepared in the same method. The first set represented post-emergence (POST) and the second set represented pre-emergence (PRE) stages of the weeds (large crabgrass, annual bluegrass, goosegrass). Then the test compound was applied at 0.25, 0.5. 1.0, 2.0, and 4.0 kg/ha. […] Four weeks after the spray of the test substance, phytotoxicity to the turfgrass and herbicidal activity to the said weeds were visually evaluated based on 0 to 100 scale (0: no phytotoxic effect, 100: completely killed). […]
# Barnyardgrass = experiment: Upland pot test, pre-/post-emergence spray, visual rating; type: in vivo, barnyardgrass (ECHCG); conditions: 2 weeks after spray, 0-10 scale (10=completely killed)
# Excerpt: (§1) To a rectangular plastic pot having a surface area of 300 cm^2, mixed soils including blend bed soil (Boonong, Horticultural Bed Soil No. 3) and sandy loam soil were filled (mixing ratio, 1:1). Seeds of the eight different types of weeds including gramineous weed such as barnyardgrass, large crabgrass, green foxtail, fall panicum, and broadleaf weed such as common cocklebur, velvetleaf, Indian joint-vetch, and morningglory were sown. To the other pot containing the same soil mixture, seeds of the five different types of crops including corn, soybean, cotton, wheat and rice were sown. Pots were kept in a greenhouse of which temperature was maintained at 25˜30° C. (day) or 15˜25° C. (night), and regularly watered.
# (§2) After fourteen days and when the crops and the weeds reached their three-leaf stage, the other set of a crop pot and a weed pot were prepared by the same method as described above. Then, “test substance” was sprayed thereto. In this case, spray treatment to the plants after they have grown for two weeks corresponded to post-emergence treatment while spray treatment to the seeds right after the sowing corresponded to pre-emergence treatment. Spray was carried out by using a track sprayer (R&D Sprayer, USA) equipped with a Teejet 8002 nozzle (Spraying Systems Co., USA). Spray volume was adjusted to 300 L/ha. The spray solution was prepared by dissolving the “test substance” in acetone and adding the same volume of 0.2% (v/v) Tween 20 aqueous solution. Dosage of the test substance was 500, 250, 125, 62.5 or 31.3 g/ha. Two weeks after the spray of the test substance, efficacy and phytotoxic effect to the crops and the weeds were visually measured based on a 0 to 10 scale (0: no efficacy, 10: completely killed).
# Velvetleaf = experiment: as above; type: in vivo, velvetleaf (ABUTH); conditions: 2 weeks after spray, 0-10 scale (10=completely killed)
# Excerpt: as §1, §2
# [2] = test system: crops such as corn, rice, wheat, soybean and cotton; experiment: Upland pot test, crops as a group; type: in vivo; conditions: pre-emergence, 500 g/ha
# Excerpt: as §1
# After fourteen days and when the crops and the weeds reached their three-leaf stage, the other set of a crop pot and a weed pot were prepared by the same method as described above. Then, “test substance” was sprayed thereto. In this case, spray treatment to the plants after they have grown for two weeks corresponded to post-emergence treatment while spray treatment to the seeds right after the sowing corresponded to pre-emergence treatment. […] Two weeks after the spray of the test substance, efficacy and phytotoxic effect to the crops and the weeds were visually measured based on a 0 to 10 scale (0: no efficacy, 10: completely killed).
# Soybean = experiment: Upland pot test, pre-/post-emergence spray, visual rating; type: in vivo, soybean (GLYMX); conditions: for Visual measurement: Crops, Soybean: 2 weeks after spray, 0-10 scale (10=completely killed)
# Excerpt: as §1, §2
# [3] = post-emergence foliar spray at three leaf stage, 31.2 g/ha
# [4] = post-emergence foliar spray at three leaf stage, 62.5 g/ha
# [5] = post-emergence foliar spray at three leaf stage, 125 g/ha
# [6] = post-emergence foliar spray at three leaf stage, 250 g/ha
# [7] = post-emergence foliar spray at three leaf stage, 500 g/ha
# [8] = pre-emergence soil treatment, 31.2 g/ha
# [9] = pre-emergence soil treatment, 62.5 g/ha
# [10] = pre-emergence soil treatment, 125 g/ha
# [11] = pre-emergence soil treatment, 250 g/ha
# [12] = pre-emergence soil treatment, 500 g/ha
compound,measurement,setting,value
"Cc1ccsc1C1=NOC(C)(COCc2c(F)cccc2F)C1 (stereo not shown) [test substance, 5-(2,6-difluorobenzyl)oxymethyl-5-methyl-3-(4-methylthiophen-5-yl)-1,2-isoxazoline]","Phytotoxic effect, visual assessment: Zoysiagrass Week 6","Zoysiagrass; Zoysia japonica (zoysiagrass), 6 weeks",0.0
same,"Phytotoxic effect, visual assessment: Zoysiagrass Week 2",Zoysiagrass,2.7
same,"Phytotoxic effect, visual assessment: Zoysiagrass Week 4",Zoysiagrass,1.7
same,"Phytotoxic effect, visual assessment: Zoysiagrass Week 6",Zoysiagrass,1.0
same,"Phytotoxic effect, visual assessment: Zoysiagrass Week 2","Zoysiagrass; zoysiagrass (Zoysia japonica), 2 weeks",0.0
same,"Phytotoxic effect, visual assessment: Zoysiagrass Week 4","Zoysiagrass; zoysiagrass (Zoysia japonica), 4 weeks",0.0
same,"Phytotoxic effect, visual assessment: Zoysiagrass Week 6","Zoysiagrass; zoysiagrass (Zoysia japonica), 6 weeks",0.0
same,Control of tested gramineous weeds (in words),[1],very effectively
same,"Visual measurement: Gramineous weed, Barnyardgrass",Barnyardgrass; [3],0
same,"Visual measurement: Gramineous weed, Barnyardgrass",Barnyardgrass; [4],2
same,"Visual measurement: Gramineous weed, Barnyardgrass",Barnyardgrass; [5],3
same,"Visual measurement: Gramineous weed, Barnyardgrass",Barnyardgrass; [6],7
same,"Visual measurement: Gramineous weed, Barnyardgrass",Barnyardgrass; [7],9
same,"Visual measurement: Gramineous weed, Barnyardgrass",Barnyardgrass; [8],2
same,"Visual measurement: Gramineous weed, Barnyardgrass",Barnyardgrass; [9],4
same,"Visual measurement: Gramineous weed, Barnyardgrass",Barnyardgrass; [10],10
same,"Visual measurement: Gramineous weed, Barnyardgrass",Barnyardgrass; [11],10
same,"Visual measurement: Gramineous weed, Barnyardgrass",Barnyardgrass; [12],10
same,"Visual measurement: Broadleaf weed, Velvetleaf",Velvetleaf; [3],0
same,"Visual measurement: Broadleaf weed, Velvetleaf",Velvetleaf; [4],0
same,"Visual measurement: Broadleaf weed, Velvetleaf",Velvetleaf; [5],1
same,"Visual measurement: Broadleaf weed, Velvetleaf",Velvetleaf; [6],3
same,"Visual measurement: Broadleaf weed, Velvetleaf",Velvetleaf; [7],6
same,"Visual measurement: Broadleaf weed, Velvetleaf",Velvetleaf; [8],0
same,"Visual measurement: Broadleaf weed, Velvetleaf",Velvetleaf; [9],0
same,"Visual measurement: Broadleaf weed, Velvetleaf",Velvetleaf; [10],0
same,"Visual measurement: Broadleaf weed, Velvetleaf",Velvetleaf; [11],0
same,"Visual measurement: Broadleaf weed, Velvetleaf",Velvetleaf; [12],0
same,Phytotoxic effect to crops (in words),[2],completely safe without any phytotoxic effect
same,"Visual measurement: Crops, Soybean",Soybean; [3],0
same,"Visual measurement: Crops, Soybean",Soybean; [4],0
same,"Visual measurement: Crops, Soybean",Soybean; [5],0
same,"Visual measurement: Crops, Soybean",Soybean; [6],2
same,"Visual measurement: Crops, Soybean",Soybean; [7],6
same,Safety to soybean (in words),Soybean; post-emergence treatment,not safe
same,"Visual measurement: Crops, Soybean",Soybean; [8],0
same,"Visual measurement: Crops, Soybean",Soybean; [9],0
same,"Visual measurement: Crops, Soybean",Soybean; [10],0
same,"Visual measurement: Crops, Soybean",Soybean; [11],0
same,"Visual measurement: Crops, Soybean",Soybean; [12],0
